Measurements reported in patent US7235664B2, “Anthranilamides with heteroarylsulfonyl side chain, process of preparation, and use” (Sanofi-Aventis Deutschland GmbH, priority 2001, dated 2007).

CC[C@H](NC(=O)c1cc(F)ccc1NS(=O)(=O)c1cccc2cccnc12)c1ccccc1 [Example 52, (S)-5-Fluoro-2-(quinoline-8-sulfonylamino)-N-(1-phenylpropyl)-benzamide]
melting point: 163 °C
